The target of test [1] is T1, Progesterone receptor (Homo sapiens, UniProt P06401).
T1 sequence (P06401 whole entry): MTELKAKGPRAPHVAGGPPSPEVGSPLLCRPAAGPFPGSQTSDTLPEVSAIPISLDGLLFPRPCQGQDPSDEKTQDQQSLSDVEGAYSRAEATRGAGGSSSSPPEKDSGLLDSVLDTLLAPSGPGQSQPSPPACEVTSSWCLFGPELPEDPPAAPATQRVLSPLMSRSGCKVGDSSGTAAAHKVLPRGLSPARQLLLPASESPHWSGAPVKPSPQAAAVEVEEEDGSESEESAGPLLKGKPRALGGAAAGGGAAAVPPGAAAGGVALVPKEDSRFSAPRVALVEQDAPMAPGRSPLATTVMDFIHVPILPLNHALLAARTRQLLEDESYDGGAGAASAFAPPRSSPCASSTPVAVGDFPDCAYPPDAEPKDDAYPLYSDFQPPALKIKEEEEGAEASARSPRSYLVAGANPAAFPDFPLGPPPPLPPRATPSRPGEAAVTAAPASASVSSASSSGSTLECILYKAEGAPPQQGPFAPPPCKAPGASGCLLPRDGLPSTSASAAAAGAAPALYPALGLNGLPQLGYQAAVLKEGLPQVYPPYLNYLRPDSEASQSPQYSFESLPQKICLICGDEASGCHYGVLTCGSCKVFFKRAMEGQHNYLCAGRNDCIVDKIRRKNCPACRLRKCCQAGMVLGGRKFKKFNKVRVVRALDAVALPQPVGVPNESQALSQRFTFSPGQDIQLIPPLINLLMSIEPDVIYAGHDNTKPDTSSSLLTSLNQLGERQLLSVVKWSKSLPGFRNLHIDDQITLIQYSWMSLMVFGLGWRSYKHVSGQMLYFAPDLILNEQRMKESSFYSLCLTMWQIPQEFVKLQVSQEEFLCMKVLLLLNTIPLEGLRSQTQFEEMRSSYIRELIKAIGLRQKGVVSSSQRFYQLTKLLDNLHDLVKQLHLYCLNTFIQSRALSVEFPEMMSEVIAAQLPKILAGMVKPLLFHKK
Type of test: functional.

Test [2] has as its target Histamine H2 receptor (Homo sapiens, UniProt P25021). In kind it is functional, cell-based.
Test [3] deals with Motilin receptor (Homo sapiens, UniProt O43193).
Test [4] deals with T2, Muscarinic acetylcholine receptor M2 (Homo sapiens, UniProt P08172).
T2 sequence (P08172 whole entry): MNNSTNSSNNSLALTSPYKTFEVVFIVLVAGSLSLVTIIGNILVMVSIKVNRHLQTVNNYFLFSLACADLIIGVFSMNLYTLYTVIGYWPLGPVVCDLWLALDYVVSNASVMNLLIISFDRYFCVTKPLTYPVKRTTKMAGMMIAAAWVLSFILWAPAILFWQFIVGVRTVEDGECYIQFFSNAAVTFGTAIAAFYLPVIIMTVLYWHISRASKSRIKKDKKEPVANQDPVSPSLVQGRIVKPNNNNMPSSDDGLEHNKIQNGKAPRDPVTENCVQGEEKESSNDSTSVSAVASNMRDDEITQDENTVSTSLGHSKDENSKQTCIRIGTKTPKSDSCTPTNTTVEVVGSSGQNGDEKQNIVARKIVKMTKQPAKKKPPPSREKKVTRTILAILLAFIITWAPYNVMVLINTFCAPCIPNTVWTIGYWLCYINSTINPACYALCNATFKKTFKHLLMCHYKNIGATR
In kind it is functional, cell-based.

The target in test [5] is T3, 5-hydroxytryptamine receptor 1A (Homo sapiens, UniProt P08908).
T3 sequence (P08908 whole entry): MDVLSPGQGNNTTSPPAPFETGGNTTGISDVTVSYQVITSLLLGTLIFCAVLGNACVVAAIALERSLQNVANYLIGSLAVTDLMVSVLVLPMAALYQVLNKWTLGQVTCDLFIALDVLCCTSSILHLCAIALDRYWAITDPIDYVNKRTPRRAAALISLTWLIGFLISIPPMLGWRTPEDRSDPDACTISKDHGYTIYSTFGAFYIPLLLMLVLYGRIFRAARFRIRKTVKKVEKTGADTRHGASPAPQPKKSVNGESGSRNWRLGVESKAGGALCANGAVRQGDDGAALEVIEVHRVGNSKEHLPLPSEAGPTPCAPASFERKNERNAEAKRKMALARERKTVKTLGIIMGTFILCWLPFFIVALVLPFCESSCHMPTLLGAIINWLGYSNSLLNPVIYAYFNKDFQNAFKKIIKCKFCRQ
Type of test: functional, cell-based.

Test [6] has as its target D(3) dopamine receptor (Homo sapiens, UniProt P35462).
Test [7] deals with 3',5'-cyclic-AMP phosphodiesterase 4D (Homo sapiens, UniProt Q08499). Type of test: functional.
Test [8] deals with Mu-type opioid receptor (Homo sapiens, UniProt P35372).
Test [9] deals with Prothrombin (Homo sapiens, UniProt P00734). Type of test: functional.
Test [10] has as its target T4, Alpha-2A adrenergic receptor (Homo sapiens, UniProt P08913).
T4 sequence (P08913 whole entry): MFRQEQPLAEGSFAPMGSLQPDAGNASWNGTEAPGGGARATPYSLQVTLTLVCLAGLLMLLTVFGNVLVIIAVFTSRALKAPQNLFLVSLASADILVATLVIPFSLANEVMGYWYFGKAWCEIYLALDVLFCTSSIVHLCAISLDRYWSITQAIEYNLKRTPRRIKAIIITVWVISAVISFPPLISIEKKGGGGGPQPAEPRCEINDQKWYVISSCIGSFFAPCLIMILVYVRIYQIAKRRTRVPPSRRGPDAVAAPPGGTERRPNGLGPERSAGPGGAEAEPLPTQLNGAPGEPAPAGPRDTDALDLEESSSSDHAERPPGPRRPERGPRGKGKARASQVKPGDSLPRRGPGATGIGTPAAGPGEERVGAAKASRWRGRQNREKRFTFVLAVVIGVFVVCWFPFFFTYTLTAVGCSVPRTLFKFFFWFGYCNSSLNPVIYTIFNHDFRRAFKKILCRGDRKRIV

Bounds are passed on as bounds.

The AC50 is the concentration giving half of the maximal activity seen. A lower AC50 goes with greater potency.
Further: assay procedure not described here.

Sequence of Histamine H2 receptor (P25021 whole entry): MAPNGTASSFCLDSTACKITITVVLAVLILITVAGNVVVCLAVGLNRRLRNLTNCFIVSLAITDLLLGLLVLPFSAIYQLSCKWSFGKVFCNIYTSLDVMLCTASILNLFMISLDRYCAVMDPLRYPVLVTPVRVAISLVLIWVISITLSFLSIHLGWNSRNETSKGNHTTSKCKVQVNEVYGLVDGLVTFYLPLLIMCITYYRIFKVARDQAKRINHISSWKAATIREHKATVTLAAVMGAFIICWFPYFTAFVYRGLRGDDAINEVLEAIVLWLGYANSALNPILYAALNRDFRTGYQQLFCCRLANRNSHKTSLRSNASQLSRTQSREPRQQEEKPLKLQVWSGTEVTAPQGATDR
Sequence of 3',5'-cyclic-AMP phosphodiesterase 4D (Q08499 whole entry): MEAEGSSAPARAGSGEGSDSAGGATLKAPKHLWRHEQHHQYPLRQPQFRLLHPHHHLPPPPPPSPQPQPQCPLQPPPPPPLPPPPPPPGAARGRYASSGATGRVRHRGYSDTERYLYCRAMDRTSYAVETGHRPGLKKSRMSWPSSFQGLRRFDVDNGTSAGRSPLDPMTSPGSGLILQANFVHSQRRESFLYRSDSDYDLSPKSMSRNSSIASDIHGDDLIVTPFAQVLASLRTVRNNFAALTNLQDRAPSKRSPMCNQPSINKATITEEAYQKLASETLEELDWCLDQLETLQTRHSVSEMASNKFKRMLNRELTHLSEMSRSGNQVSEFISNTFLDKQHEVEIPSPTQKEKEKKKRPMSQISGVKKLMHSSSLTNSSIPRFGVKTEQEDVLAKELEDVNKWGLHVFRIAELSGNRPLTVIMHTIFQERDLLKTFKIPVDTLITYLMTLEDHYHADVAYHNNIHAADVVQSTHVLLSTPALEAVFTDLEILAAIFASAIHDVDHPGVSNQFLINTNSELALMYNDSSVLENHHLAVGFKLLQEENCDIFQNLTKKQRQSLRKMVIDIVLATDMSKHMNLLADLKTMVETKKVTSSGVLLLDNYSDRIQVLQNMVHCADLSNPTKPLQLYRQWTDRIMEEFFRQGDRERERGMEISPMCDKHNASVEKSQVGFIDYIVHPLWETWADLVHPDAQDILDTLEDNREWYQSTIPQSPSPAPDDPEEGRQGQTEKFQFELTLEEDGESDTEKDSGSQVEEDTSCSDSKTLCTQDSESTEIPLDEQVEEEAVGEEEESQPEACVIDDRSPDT
Sequence of Mu-type opioid receptor (P35372 whole entry): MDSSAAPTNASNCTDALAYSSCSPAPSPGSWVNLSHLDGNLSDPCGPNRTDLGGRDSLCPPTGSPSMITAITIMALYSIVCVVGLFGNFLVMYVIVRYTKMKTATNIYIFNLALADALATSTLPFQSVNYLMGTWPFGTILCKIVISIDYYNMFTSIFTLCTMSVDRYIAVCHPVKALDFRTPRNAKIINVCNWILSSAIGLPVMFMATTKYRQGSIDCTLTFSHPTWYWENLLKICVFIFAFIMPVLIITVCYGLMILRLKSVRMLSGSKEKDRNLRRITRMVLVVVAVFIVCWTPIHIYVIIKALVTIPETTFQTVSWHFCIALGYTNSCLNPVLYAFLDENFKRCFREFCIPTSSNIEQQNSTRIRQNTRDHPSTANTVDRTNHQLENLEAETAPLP
Sequence of D(3) dopamine receptor (P35462 whole entry): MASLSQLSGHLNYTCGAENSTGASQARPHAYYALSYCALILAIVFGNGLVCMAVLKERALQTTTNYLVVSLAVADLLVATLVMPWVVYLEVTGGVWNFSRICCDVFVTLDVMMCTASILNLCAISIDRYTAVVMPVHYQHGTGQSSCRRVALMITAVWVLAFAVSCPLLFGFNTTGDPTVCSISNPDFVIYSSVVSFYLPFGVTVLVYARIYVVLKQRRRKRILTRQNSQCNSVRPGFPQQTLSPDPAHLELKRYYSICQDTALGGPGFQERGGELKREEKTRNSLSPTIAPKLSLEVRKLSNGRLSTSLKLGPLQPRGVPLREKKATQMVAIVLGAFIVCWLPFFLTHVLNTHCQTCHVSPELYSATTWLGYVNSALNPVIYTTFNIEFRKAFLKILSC
Sequence of Motilin receptor (O43193 whole entry): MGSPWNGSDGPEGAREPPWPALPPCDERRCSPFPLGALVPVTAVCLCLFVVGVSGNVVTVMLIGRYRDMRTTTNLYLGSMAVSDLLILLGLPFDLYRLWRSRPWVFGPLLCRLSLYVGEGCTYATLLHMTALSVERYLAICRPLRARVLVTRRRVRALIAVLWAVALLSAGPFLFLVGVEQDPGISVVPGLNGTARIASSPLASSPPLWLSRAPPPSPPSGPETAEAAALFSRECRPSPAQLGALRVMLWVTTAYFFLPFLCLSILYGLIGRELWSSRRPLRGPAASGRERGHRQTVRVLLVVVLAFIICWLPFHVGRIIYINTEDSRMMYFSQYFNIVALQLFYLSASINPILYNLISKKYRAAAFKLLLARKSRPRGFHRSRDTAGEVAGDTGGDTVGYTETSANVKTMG

Regarding `CC(/C=C1\SC(=S)N(CC(=O)O)C1=O)=C\c1ccccc1`, the AC50 in test [1] is more than 30 µM; in [2], more than 30 µM; in test [3], more than 30 µM; in test [4] it was more than 30 µM; in test [5], 21 µM.
Take `O=C1CN2Cc3c(ccc(Cl)c3Cl)N=C2N1` [ANAGRELIDE]: the AC50 in [6] is more than 30 µM; in test [2] it was more than 10 µM; in [7], more than 30 µM; in test [3], more than 10 µM; in [8], more than 30 µM; in [4], more than 10 µM.
Take `C=C(C)[C@@H]1CCC(C)=C[C@H]1c1c(O)cc(CCCCC)cc1O` [CANNABIDIOL]: the AC50 in test [6] is more than 30 µM; in test [1], more than 10 µM; in test [7], more than 30 µM; in [3], 20.5 µM; in test [4], 8 µM; in test [5], more than 10 µM.
Take `Clc1cccc(Cl)c1N=C1NCCN1` [CLONIDINE]: the AC50 is more than 10 µM in [6]; 0.39 µM in test [2]; more than 30 µM in [7]; more than 10 µM in [3]; more than 30 µM in test [8]; more than 10 µM in test [4]. Also, in [5], the concentration at half-maximal activity (AC50) is more than 10 µM.
Turning to `CN1C[C@H](C(=O)N[C@]2(C)O[C@@]3(O)[C@@H]4CCCN4C(=O)[C@H](Cc4ccccc4)N3C2=O)C[C@@H]2c3cccc4[nH]cc(c34)C[C@H]21` [DIHYDROERGOTAMINE], the concentration at half-maximal activity (AC50) in test [6] is 0.055 µM; in test [2], 0.62 µM; in test [7] it was 6.7 µM; in test [3] it was more than 10 µM; in [8], more than 30 µM; in [4] it was more than 10 µM.
`CNCC[C@H](Oc1cccc2ccccc12)c1cccs1` [DULOXETINE]: the concentration at half-maximal activity (AC50) in test [6] was 4.6 µM; in test [2], more than 10 µM; in test [3] it was 5.3 µM; in test [8], 12 µM; in [4], more than 10 µM.
On to `CCC(=O)O[C@@H](O[P@](=O)(CCCCc1ccccc1)CC(=O)N1C[C@H](C2CCCCC2)C[C@H]1C(=O)O)C(C)C` [FOSINOPRIL], for which the concentration at half-maximal activity (AC50) in test [6], in test [9], in test [2], in test [7], in test [10] and in [4] was more than 30 µM throughout. Moreover, the concentration at half-maximal activity (AC50) in test [5] was more than 30 µM.
With `Nc1nc(O)c2ncn(COC(CO)CO)c2n1` [GANCICLOVIR], the AC50 in [6], in [1], in [2], in [7], in [3] and in test [4] was more than 30 µM in each case. In [5], this compound showed an AC50 of more than 30 µM.
For `Cc1cnc(NC(=O)C2=C(O)c3ccccc3S(=O)(=O)N2C)s1` [MELOXICAM], the half-maximal activity concentration (AC50) in test [6], in test [2], in [7], in test [3], in [8] and in test [4] was more than 10 µM throughout. Besides, the half-maximal activity concentration (AC50) in test [5] was more than 10 µM.
Regarding `CNCCC=C1c2ccccc2CCc2ccccc21` [NORTRIPTYLINE], the AC50 is more than 30 µM in test [1]; more than 30 µM in [2]; 7.5 µM in test [7]; more than 30 µM in test [3]; more than 30 µM in test [4]; 8 µM in [5].
In the case of `COc1ccnc(C[S+]([O-])c2nc3ccc(OC(F)F)cc3[nH]2)c1OC` (stereo not given) [PANTOPRAZOLE], the AC50 is more than 10 µM in [6]; more than 10 µM in test [2]; more than 30 µM in [7]; more than 10 µM in test [3]; more than 30 µM in [8]; more than 10 µM in test [4]. This compound gave a concentration at half-maximal activity (AC50) in [5] of more than 10 µM.
For `CNC[C@H](O)c1cccc(O)c1` [PHENYLEPHRINE], the half-maximal activity concentration (AC50) in test [6] is 4.1 µM; in [9] it was more than 30 µM; in test [2], more than 10 µM; in [7] it was more than 30 µM; in test [3], more than 10 µM; in [8], more than 10 µM. The AC50 in test [4] and in test [5] was more than 10 µM throughout.
As to `NC(=O)c1ncn([C@@H]2O[C@H](CO)[C@@H](O)[C@H]2O)n1` [RIBAVIRIN], the half-maximal activity concentration (AC50) is more than 30 µM in [6]; more than 10 µM in test [1]; more than 10 µM in [2]; more than 30 µM in [7]; more than 10 µM in [3]; more than 30 µM in test [8]. This compound also yielded an AC50 in test [4] of more than 10 µM.
Take `CC(=O)S[C@@H]1CC2=CC(=O)CC[C@]2(C)[C@H]2CC[C@@]3(C)[C@@H](CC[C@@]34CCC(=O)O4)[C@H]12` [SPIRONOLACTONE]: the AC50 is more than 30 µM in [6]; more than 10 µM in test [2]; more than 30 µM in [7]; more than 30 µM in test [3]; more than 30 µM in test [8]; more than 30 µM in [4]. Also, the AC50 in [5] was more than 30 µM.
Consider `CCCCNc1ccc(C(=O)OCCN(C)C)cc1` [TETRACAINE], for which the AC50 in test [6] is 22 µM; in test [9] it was more than 30 µM; in [2] it was more than 10 µM; in [7] it was more than 30 µM; in test [10], more than 30 µM; in test [3], more than 10 µM. In addition, the half-maximal activity concentration (AC50) in test [8], in test [4] and in [5] was more than 10 µM each time.
For the compound `Cn1c(=O)c2[nH]cnc2n(C)c1=O` [THEOPHYLLINE], the concentration at half-maximal activity (AC50) in [6] is more than 30 µM; in [9], more than 30 µM; in test [2] it was more than 10 µM; in [10], more than 30 µM; in test [3], more than 10 µM; in test [8] it was more than 30 µM. For the same compound, the AC50 in test [4] and in test [5] was more than 10 µM in each case.
In the case of `Cc1cc(CC(=O)O)n(C)c1C(=O)c1ccc(Cl)cc1` [ZOMEPIRAC], the AC50 in test [6], in [1], in [2], in test [7], in test [3] and in test [4] was more than 30 µM each time. In test [5], this compound registered an AC50 of more than 30 µM.

For the origin of these results see ChEMBL document CHEMBL5291721, “A preclinical secondary pharmacology resource illuminates target-adverse drug reaction associations of marketed drugs” (Nat Commun, 2023).
